Laboratory results: patent US9394275B2, “Diamide compounds having muscarinic receptor antagonist and BETA2 adrenergic receptor agonist activity” (THERAVANCE RESPIRATORY COMPANY, LLC, priority 2009, dated 2016)
Structures can show the parent of a compound that is named as a salt.

Test system: MCh-induced bronchoconstriction in a rat
Assay: Einthoven assay: bronchoprotection against methacholine (MCh)-induced bronchoconstriction
Assay type: in vivo
Conditions: Rattus norvegicus, inhaled or nasal, 24 h, read-out: Broncho. at 24 h
Experimental: This assay measures the ability of a test compound to provide bronchoprotection against methacholine (MCh)-induced bronchoconstriction in a rat. Male Sprague-Dawley rats (Harlan, Indianapolis, Ind.), weighing between 200 g and 350 g, were used for all studies. Test compound or vehicle (sterile deionized water) were dosed by inhalation (IH) over a 10 min period in a pie shaped inhalation chamber (R+S Molds, San Carlos, Calif.) using 5 mL of dosing solution. […] Rats were dosed with 100 μg of test compound unless otherwise indicated. At predetermined time points, rats were anesthetized with an intraperitoneal (IP) injection of 120 mg/kg inactin (thiobutabarbital). A supplemental dose (40 mg/kg, IP) was administered if the animal responded to physical stimuli (e.g. toe pinch). The surgical site was shaved and a 1-2 cm midline incision of the ventral aspect of the neck was made. The jugular vein was isolated and cannulated with a saline-filled polyethylene catheter (PE-50) to allow IV infusion of MCh. Trachea was dissected free and cannulated with a 14G needle (#NE-014, Small Parts, Miami Lakes, Fla.). After placement of the tracheal cannula, each rat was ventilated using a respirator (Model 683, Harvard Apparatus, Inc., MA) set at a stroke volume of 1 mL/100 g body weight (but not exceeding 2.5 mL volume) and a rate of 90 strokes per minute. A T-connector was placed along the respirator expiratory tubing to allow for measurement of changes in ventilation pressure (VP) using a Biopac transducer that was connected to a Biopac […]) pre-amplifier. Body temperature was maintained at 37° C. using a heating pad. Changes in VP were recorded using the Acknowledge Data Collection Software (Santa Barbara, Calif.). Baseline values were collected for at least 2.5 min. Rats were then challenged with non-cumulative intravenous (IV) infusions of 40 and 80 μg/kg MCh. MCh was infused intravenously for 2.5 minutes from a syringe pump (sp210iw, World Precision Instruments, Inc., Sarasota, Fla.) at a rate of 2 mL/kg/min, with a 2 minute interval between the two doses of MCh. Changes in ventilation pressure (cm H2O) in treated animals are expressed as % inhibition of MCh response relative to control animals. Other bronchoconstrictors, such as histamine and acetylcholine, can be used in place of MCh in this assay. Additionally, guinea pigs can be used instead of rats. […] Inhibition greater than or equal to 30 percent at 24 h is indicative of a long duration of action.

| SMILES | inhibition in vivo at 0.1 mg [%] |
| --- | --- |
| C[C@H](Cc1cccc(CCNC(=O)Cc2ccc(N(C)C(=O)CCN3CCC(OC(=O)Nc4ccccc4-c4ccccc4)CC3)cc2)c1)NC[C@H](O)c1ccc(O)c2[nH]c(=O)ccc12 [Compound I-86, Biphenyl-2-ylcarbamic Acid 1-{2-[(4-{[2-(3-{(R)-2-[(R)-2-Hydroxy-2-(8-hydroxy-2-oxo-1,2-dihydroquinolin-5-yl)ethylamino]propyl}phenyl)-ethylcarbamoyl]methyl}phenyl)methylcarbamoyl]ethyl}piperidin-4-yl Ester Ditrifluoroacetic Acid Salt] | > 30 |

Same assay, conditions: inhaled or nasal; rat, 100 μg by inhalation, 24 h after administration; read-out: Broncho. at 24 h

| SMILES | inhibition in vivo at 0.1 mg [%] |
| --- | --- |
| Cc1ccc(C(=O)Nc2ccc(CCNC[C@H](O)c3ccc(O)c4[nH]c(=O)ccc34)cc2)cc1N(C)C(=O)CCN1CCC(OC(=O)Nc2ccccc2-c2ccccc2)CC1 [Compound I-35] | > 30 |

Same assay, conditions: rat, 100 μg by inhalation, 24 h after administration

| SMILES | Broncho. at 24 h |
| --- | --- |
| COc1cc(CNC[C@H](O)c2ccc(O)c3[nH]c(=O)ccc23)ccc1NC(=O)c1cccc(N(C)C(=O)CCN2CCC(OC(=O)Nc3ccccc3-c3ccccc3)CC2)c1 [Compound I-29] | No |
| CC(Cc1cccc(CNC(=O)c2cccc(N(C)C(=O)CCN3CCC(OC(=O)Nc4ccccc4-c4ccccc4)CC3)c2)c1)NC[C@H](O)c1ccc(O)c2[nH]c(=O)ccc12 (stereo partly drawn) [Compound I-44] | No |
| Cc1cc(CNC[C@H](O)c2ccc(O)c3[nH]c(=O)ccc23)ccc1NC(=O)c1cccc(N(C)C(=O)CCN2CCC(OC(=O)Nc3ccccc3-c3ccccc3)CC2)c1 [Compound I-27] | No |
| C[C@@H](Cc1cccc(NC(=O)c2cccc(N(C)C(=O)CCN3CCC(OC(=O)Nc4ccccc4-c4ccccc4)CC3)c2)c1)NC[C@H](O)c1ccc(O)c2[nH]c(=O)ccc12 [Compound I-39] | No |
| C[C@H](Cc1cccc(NC(=O)c2cccc(N(C)C(=O)CCN3CCC(OC(=O)Nc4ccccc4-c4ccccc4)CC3)c2)c1)NC[C@H](O)c1ccc(O)c2[nH]c(=O)ccc12 [Compound I-38] | No |
| C[C@H](Cc1cccc(CC(=O)NCCCN(C)C(=O)CCN2CCC(OC(=O)Nc3ccccc3-c3ccccc3)CC2)c1)NC[C@H](O)c1ccc(O)c2[nH]c(=O)ccc12 [Compound I-12] | No |
| Cc1ccc(C(=O)Nc2cccc(CCNC[C@H](O)c3ccc(O)c4[nH]c(=O)ccc34)c2)cc1N(C)C(=O)CCN1CCC(OC(=O)Nc2ccccc2-c2ccccc2)CC1 [Compound I-33] | No |
| CC(Cc1ccc(CC(=O)NCc2ccc(N(C)C(=O)CCN3CCC(OC(=O)Nc4ccccc4-c4ccccc4)CC3)cc2)cc1)NC[C@H](O)c1ccc(O)c2[nH]c(=O)ccc12 (stereo partly drawn) [Compound I-80] | No |
| C[C@H](Cc1ccc(NC(=O)c2cccc(N(C)C(=O)CCN3CCC(OC(=O)Nc4ccccc4-c4ccccc4)CC3)c2)cc1)NC[C@H](O)c1ccc(O)c2[nH]c(=O)ccc12 [Compound I-42] | No |
| Cc1cc(NC(=O)CCCCN(C)C(=O)CCN2CCC(OC(=O)Nc3ccccc3-c3ccccc3)CC2)c(C)cc1CNC[C@H](O)c1ccc(O)c2[nH]c(=O)ccc12 [Compound I-18, Biphenyl-2-ylcarbamic Acid 1-(2-{[4-(4-{[(R)-2-Hydroxy-2-(8-hydroxy-2-oxo-1,2-dihydroquinolin-5-yl)ethylamino]methyl}-2,5-dimethylphenylcarbamoyl)butyl]methylcarbamoyl}ethyl)piperidin-4-yl Ester Ditrifluoroacetic Acid Salt] | Yes (Bronchoprotective effect present at 24 h, e.g., ≧30% inhibition of the MCh response at 24 h in the rat Einthoven assay (100 μg)) |
| C[C@@H](Cc1cccc(CC(=O)NCc2ccc(N(C)C(=O)CCN3CCC(OC(=O)Nc4ccccc4-c4ccccc4)CC3)cc2)c1)NC[C@H](O)c1ccc(O)c2[nH]c(=O)ccc12 [Compound I-79] | No |
| Cc1cc(NC(=O)c2cccc(N(C)C(=O)CCN3CCC(OC(=O)Nc4ccccc4-c4ccccc4)CC3)c2)c(C)cc1CNC[C@H](O)c1ccc(O)c2[nH]c(=O)ccc12 [Compound I-30] | No |
| CN(CCCCC(=O)Nc1ccc(CNC[C@H](O)c2ccc(O)c3[nH]c(=O)ccc23)cc1)C(=O)CCN1CCC(OC(=O)Nc2ccccc2-c2ccccc2)CC1 [Compound I-14, Biphenyl-2-ylcarbamic Acid 1-(2-{[4-(4-{[(R)-2-hydroxy-2-(8-hydroxy-2-oxo-1,2-dihydroquinolin-5-yl)ethylamino]methyl}phenylcarbamoyl)-butyl]methylcarbamoyl}ethyl)piperidin-4-yl Ester Ditrifluoroacetic Acid Salt] | Yes (Bronchoprotective effect present at 24 h, e.g., ≧30% inhibition of the MCh response at 24 h in the rat Einthoven assay (100 μg)) |
| CN(C(=O)CCN1CCC(OC(=O)Nc2ccccc2-c2ccccc2)CC1)c1ccc(CC(=O)NCc2ccc(CCNC[C@H](O)c3ccc(O)c4[nH]c(=O)ccc34)cc2)cc1 [Compound I-64] | No |
| CC(Cc1ccc(CNC(=O)Cc2ccc(N(C)C(=O)CCN3CCC(OC(=O)Nc4ccccc4-c4ccccc4)CC3)cc2)cc1)NC[C@H](O)c1ccc(O)c2[nH]c(=O)ccc12 (stereo partly drawn) [Compound I-66] | No |
| Cc1cc(CNC[C@H](O)c2ccc(O)c3[nH]c(=O)ccc23)ccc1NC(=O)c1ccc(C)c(N(C)C(=O)CCN2CCC(OC(=O)Nc3ccccc3-c3ccccc3)CC2)c1 [Compound I-28] | No |
| Cc1ccc(C(=O)Nc2cccc(CC(C)NC[C@H](O)c3ccc(O)c4[nH]c(=O)ccc34)c2)cc1N(C)C(=O)CCN1CCC(OC(=O)Nc2ccccc2-c2ccccc2)CC1 (stereo partly drawn) [Compound I-37] | No |
| Cc1cc(CNC[C@H](O)c2ccc(O)c3[nH]c(=O)ccc23)ccc1NC(=O)CCCN(C)C(=O)CCN1CCC(OC(=O)Nc2ccccc2-c2ccccc2)CC1 [Compound I-2] | No |
| CC(Cc1cccc(CC(=O)Nc2cccc(N(C)C(=O)CCN3CCC(OC(=O)Nc4ccccc4-c4ccccc4)CC3)c2)c1)NC[C@H](O)c1ccc(O)c2[nH]c(=O)ccc12 (stereo partly drawn) [Compound I-52] | No |
| Cc1ccc(C(=O)NCc2cccc(CC(C)NC[C@H](O)c3ccc(O)c4[nH]c(=O)ccc34)c2)cc1N(C)C(=O)CCN1CCC(OC(=O)Nc2ccccc2-c2ccccc2)CC1 (stereo partly drawn) [Compound I-45] | No |
| CN(C(=O)CCN1CCC(OC(=O)Nc2ccccc2-c2ccccc2)CC1)c1cccc(C(=O)Nc2cccc(CCNC[C@H](O)c3ccc(O)c4[nH]c(=O)ccc34)c2)c1 [Compound I-32] | No |
| C[C@@H](Cc1cccc(CCNC(=O)c2ccc(N(C)C(=O)CCN3CCC(OC(=O)Nc4ccccc4-c4ccccc4)CC3)cc2)c1)NC[C@H](O)c1ccc(O)c2[nH]c(=O)ccc12 [Compound I-56] | No |
